For 13 molecules, IC50 and inhibition results are on record in patent US20240083857A1, “2-Methyl-Quinazolines” (Bayer Pharma Aktiengesellschaft, priority 2017, published 2024).

In test [1] the target is human SOS1 (loading of human K-Ras^G12C-GDP with fluorescent GTP-analog) (Homo sapiens, UniProt Q07889). As to the kind of experiment: Biochemical assay 3: K-Ras^G12C activation assay by hSOS1 (HTRF). As to conditions: for IC50: E-notation values, unit inferred, read-out: Assay 3 (KRAS-Activation) IC50. (Time-resolved FRET reads energy transfer from a long-lived donor to a nearby acceptor.)

Test [2] has as its target K-Ras^G12C : hSOS1 interaction (Homo sapiens, UniProt Q07889). As to the kind of experiment: Biochemical assay 1: K-Ras^G12C interaction assay with hSOS1 (HTRF). The format is binding. As to conditions: for IC50: E-notation values, unit inferred, read-out: Assay 1 (KRAS-SOS interaction) IC50.

Usually IC50 stands for the concentration needed to halve the response being measured. In general, inhibition refers to the drop in the measured response relative to a control, in per cent.

A value given as a limit tells only on which side of the number the result lay.

On to `Cc1nc(N[C@H](C)c2cccc(Cl)c2)c2cc(CO)ccc2n1` [Example 373, (4-{[(1R)-1-(3-chlorophenyl)ethyl]amino}-2-methylquinazolin-6-yl)methanol], for which the IC50 came out at 9210 nM in test [1] and 1520 nM in test [2].

With `COC(=O)C(C)(C)c1ccccc1-c1ccc(C(C)Nc2nc(C)nc3cc(OC)c(OC)cc23)s1` (centres unmarked) [Example 436, methyl 2-[2-(5-{1-[(6,7-dimethoxy-2-methylquinazolin-4-yl)amino]ethyl}thiophen-2-yl)phenyl]-2-methylpropanoate], the IC50 is 1770 nM in test [1] and 2390 nM in test [2].

On to `COc1cc2nc(C)nc(NC(C)c3ccc(-c4ccccc4CNc4ccccc4)s3)c2cc1OC` (centres unmarked) [Example 362, 6,7-dimethoxy-2-methyl-N-[1-(5-{2-[(phenylamino)methyl]phenyl}thiophen-2-yl)ethyl]quinazolin-4-amine], for which the inhibition at 20 µM turned out to be 30% in test [1] (read-out: Assay 3 (KRAS-Activation by SOS no GTP) activity expressed as % inhibition at 20 μM, no GTP, at 20 μM) and 26% in test [2] (read-out: Assay 1 (KRAS-SOS Interaction) activity expressed as % inhibition at 20 μM).

Consider `COc1cc2nc(C)nc(NC(C)c3sc(-c4ccccc4CNC(=O)OC(C)(C)C)cc3Cl)c2cc1OC` (centres unmarked) [Example 429, tert-butyl [2-(4-chloro-5-{1-[(6,7-dimethoxy-2-methylquinazolin-4-yl)amino]ethyl}thiophen-2-yl)benzyl]carbamate], for which the IC50 amounted to 5040 nM in test [1] and 6090 nM in test [2].

As for `COc1cc2nc(C)nc(NC(C)c3ccc(-c4ccccc4C(O)CO)s3)c2cc1OC` (centres unmarked) [Example 403], the IC50 was 632 nM in test [1] and 442 nM in test [2].

With `COc1cc2nc(C)nc(NC(C)c3cc(C)c(-c4cnc5n4CCC5)s3)c2cc1OC` (centres unmarked) [Example 381, N-{1-[5-(6,7-dihydro-5H-pyrrolo[1,2-a]imidazol-3-yl)-4-methylthiophen-2-yl]ethyl}-6,7-dimethoxy-2-methylquinazolin-4-amine], the figures for the IC50 in test [1] and in test [2] were 2330 nM and 490 nM, respectively.

As to `COc1cc2nc(C)nc(NC(C)c3ccc(-c4ccc(C5CC5)cc4CN(C)C)s3)c2cc1OC` (centres unmarked) [Example 443, N-[1-(5-{4-cyclopropyl-2-[(dimethylamino)methyl]phenyl}thiophen-2-yl)ethyl]-6,7-dimethoxy-2-methylquinazolin-4-amine], the IC50 is 69 nM in test [1] and 112 nM in test [2].

In the case of `COc1cc2nc(C)nc(N[C@H](C)c3cccc(-c4ccnc(O)c4)c3)c2cc1OC` [Example 388, 4-(3-{(1R)-1-[(6,7-dimethoxy-2-methylquinazolin-4-yl)amino]ethyl}phenyl)pyridin-2-ol], the IC50 was 757 nM in test [1] and 205 nM in test [2].

`COc1cc2nc(C)nc(NC(C)c3ccc(-c4ccnc(O)c4)s3)c2cc1OC` (centres unmarked) [Example 410, 4-(5-{1-[(6,7-dimethoxy-2-methylquinazolin-4-yl)amino]ethyl}-2-thienyl)pyridin-2-ol]: the IC50 is more than 20000 nM in test [1] and 4230 nM in test [2].

Turning to `COc1cc2nc(C)nc(NC(C)c3ccc(-c4cc(Cl)ccc4CNC(=O)OC(C)(C)C)s3)c2cc1OC` (centres unmarked) [Example 387, tert-butyl [4-chloro-2-(5-{1-[(6,7-dimethoxy-2-methylquinazolin-4-yl)amino]ethyl}-thiophen-2-yl)benzyl]carbamate], the results for the IC50 in test [1] and in test [2] were 8320 nM and 1170 nM, respectively.

On to `Cc1ccc2nc(C)nc(N[C@H](C)c3cccc(Cl)c3)c2c1` [Example 404, N-[(1R)-1-(3-chlorophenyl)ethyl]-2,6-dimethylquinazolin-4-amine], for which the results for the IC50 in test [1] and in test [2] were 9300 nM and 4680 nM, respectively.

On to `C#CC(O)c1ccccc1-c1ccc(C(C)Nc2nc(C)nc3cc(OC)c(OC)cc23)s1` (centres unmarked) [Example 378, 1-[2-(5-{1-[(6,7-dimethoxy-2-methylquinazolin-4-yl)amino]ethyl}thiophen-2-yl)phenyl]prop-2-yn-1-ol], for which the IC50 in test [1] was 1450 nM; in test [2], 430 nM.

Regarding `Cc1nc(N[C@H](C)c2cccc(Cl)c2)c2cc(-c3cnn(C)c3)ccc2n1` [Example 406, N-[(1R)-1-(3-chlorophenyl)ethyl]-2-methyl-6-(1-methyl-1H-pyrazol-4-yl)quinazolin-4-amine], the IC50 in test [1] was 855 nM; in test [2] it was 727 nM.
